# From article PMC2801547 (Journal of medicinal chemistry, 2009)
# Assays:
# [1] = system: pTN24 dual-reporter splicing construct in 293T cells; assay: Dual-reporter cell-based splicing assay; settings: 5 hours treatment
# [2] = system: JeKo-1 mantle cell lymphoma tumors; settings: JeKo-1 tumor-bearing mice, Supplemental Figure S2
# [3] = cited from earlier work
# [4] = NOD/SCID mice, 5-50 mg/kg daily for five days, IV and IP, day 5
# [5] = system: normal human foreskin fibroblasts (HFF); assay: cells; settings: Fibroblast, 72 h
# [6] = system: WiDr colorectal adenocarcinoma cells; assay: cells; settings: Homo sapiens, 72 h
# [7] = system: panel of human cancer cell lines; settings: read-out: IC50 in all cell lines tested; all tumor lines examined; cited from earlier work
# several tumor cell lines = settings: cited from earlier work
structure (smiles),measurement,setting,value
"CC(/C=C/[C@@H]1C[C@]2(CO2)CC(C)(C)O1)=C\C[C@H]1OC[C@@H](NC(=O)/C=C\[C@H](C)OC(=O)C(C)C)CO1 [compound 26, (S,Z)-5-((2R,5R)-2-((2E,4E)-5-((3R,5S)-7,7-dimethyl-1,6-dioxaspiro[2.5]octan-5-yl)-3-methylpenta-2,4-dienyl)-1,3-dioxan-5-ylamino)-5-oxopent-3-en-2-yl isobutyrate]",effect on splicing (ratio of luciferase to β-galactosidase activity),[1],selectively inhibit splicing
same,in vivo anti-cancer activity,[2],robust anti-cancer activity that was comparable to compound 5
CC[C@H](O)[C@@H](C)[C@H]1O[C@@H]1C[C@@](C)(O)/C=C/C=C(\C)[C@H]1OC(=O)C[C@H](O)CC[C@@](C)(O)[C@@H](OC(=O)N2CCN(C3CCCCCC3)CC2)/C=C/[C@@H]1C [compound 2],activity relative to pladienolide B,[3],four-fold less active than pladienolide B
"CC(/C=C/[C@@H]1C[C@]2(CO2)CC(C)(C)O1)=C\C[C@H]1CC[C@@H](NC(=O)/C=C\[C@H](C)OC(=O)C(C)C)CC1 [compound 5, (S,Z)-5-((1R,4R)-4-((2E,4E)-5-((3R,5S)-7,7-dimethyl-1,6-dioxaspiro[2.5]octan-5-yl)-3-methylpenta-2,4-dienyl)cyclohexylamino)-5-oxopent-3-en-2-yl isobutyrate]",blood cell counts (CBC) versus vehicle-only mice,[4],No significant differences in blood cell counts
same,IC50,[5],> 10 µM
CC(=O)O[C@@H](C)/C=C\C(=O)N[C@H]1CC[C@@H](C/C=C(C)/C=C/[C@@H]2C[C@]3(CO3)CC(C)(C)O2)CC1 [compound 3a],IC50,[6],2 µM
same,IC50,[7],< 5 µM
CC(=O)O[C@@H](C)/C=C\C(=O)N[C@@H]1C[C@H](C)[C@H](C/C=C(C)/C=C/[C@H]2O[C@](C)(O)C[C@@]3(CO3)[C@@H]2O)O[C@@H]1C [compound 1],cytotoxicity IC50s,several tumor cell lines; several tumor cell lines,low nanomolar range
same,GI50s,several tumor cell lines; several tumor lines,single-digit nanomolar range
CC(/C=C/[C@@H]1C[C@]2(CO2)CC(C)(C)O1)=C\C[C@H]1CC[C@@H](NC(=O)/C=C\[C@H](C)O)CC1 [compound 4],effect on splicing (ratio of luciferase to β-galactosidase activity),[1],altered splicing only very slightly at the highest concentration tested
"CC(=O)N[C@H]1CO[C@@H](C/C=C(C)/C=C/[C@@H]2C[C@]3(CO3)CC(C)(C)O2)OC1 [compound 27, N-((2s,5R)-2-((2E,4E)-5-((3R,5S)-7,7-dimethyl-1,6-dioxaspiro[2.5]octan-5-yl) -3-methylpenta-2,4-dienyl)-1,3-dioxan-5-yl)acetamide]",effect on splicing (ratio of luciferase to β-galactosidase activity),[1],had no effect
